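Assay format: 96-well plates, 48-hour exposure. TGI: concentration producing complete growth inhibition.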
Tests used:
Test in all cases: growth of human tumour cells (NCI), 48 h
DU-145 prostate = tested on: DU-145 prostate
OVCAR-8 ovarian = tested on: OVCAR-8 ovarian
SK-OV-3 ovarian = tested on: SK-OV-3 ovarian
HOP-62 NSCLC = tested on: HOP-62 NSCLC
SNB-75 CNS = tested on: SNB-75 CNS
OVCAR-4 ovarian = tested on: OVCAR-4 ovarian
MCF7 breast = tested on: MCF7 breast
NCI-H460 lung = tested on: NCI-H460 lung
HT29 colon = tested on: HT29 colon
786-0 renal = tested on: 786-0 renal
KM12 colon = tested on: KM12 colon
UO-31 renal = tested on: UO-31 renal
COLO 205 colon = tested on: COLO 205 colon
SF-539 CNS = tested on: SF-539 CNS
HOP-92 NSCLC = tested on: HOP-92 NSCLC
U251 CNS = tested on: U251 CNS
MDA-MB-231 breast = tested on: MDA-MB-231 breast
NCI/ADR-RES ovarian = tested on: NCI/ADR-RES ovarian
RPMI-8226 leukemia = tested on: RPMI-8226 leukemia
LOX IMVI melanoma = tested on: LOX IMVI melanoma
SF-268 CNS = tested on: SF-268 CNS
HS 578T breast = tested on: HS 578T breast
HCT-15 colon = tested on: HCT-15 colon
M14 melanoma = tested on: M14 melanoma
NCI-H23 lung = tested on: NCI-H23 lung
SW-620 colon = tested on: SW-620 colon
OVCAR-5 ovarian = tested on: OVCAR-5 ovarian
K-562 leukemia = tested on: K-562 leukemia
RXF 393 renal = tested on: RXF 393 renal
SK-MEL-28 melanoma = tested on: SK-MEL-28 melanoma
SK-MEL-5 melanoma = tested on: SK-MEL-5 melanoma
UACC-62 melanoma = tested on: UACC-62 melanoma
HCC-2998 colon = tested on: HCC-2998 colon
BT-549 breast = tested on: BT-549 breast
SK-MEL-2 melanoma = tested on: SK-MEL-2 melanoma
SNB-19 CNS = tested on: SNB-19 CNS
SN12C renal = tested on: SN12C renal
EKVX NSCLC = tested on: EKVX NSCLC
ACHN renal = tested on: ACHN renal
UACC-257 melanoma = tested on: UACC-257 melanoma
NCI-H522 lung = tested on: NCI-H522 lung
CCRF-CEM leukemia = tested on: CCRF-CEM leukemia
PC-3 prostate = tested on: PC-3 prostate
MDA-N = tested on: MDA-N
A498 renal = tested on: A498 renal
HCT-116 colon = tested on: HCT-116 colon
CAKI-1 renal = tested on: CAKI-1 renal
TK-10 renal = tested on: TK-10 renal
MOLT-4 leukemia = tested on: MOLT-4 leukemia
SF-295 CNS = tested on: SF-295 CNS
MALME-3M melanoma = tested on: MALME-3M melanoma
SR leukemia = tested on: SR leukemia
MDA-MB-435 = tested on: MDA-MB-435
IGROV1 ovarian = tested on: IGROV1 ovarian
T-47D breast = tested on: T-47D breast
NCI-H226 lung = tested on: NCI-H226 lung
A549 NSCLC = tested on: A549 NSCLC
HL-60(TB) leukemia = tested on: HL-60(TB) leukemia
OVCAR-3 ovarian = tested on: OVCAR-3 ovarian
DMS 114 small cell lung = tested on: DMS 114 small cell lung
LXFL 529 NSCLC = tested on: LXFL 529 NSCLC
M19-MEL melanoma = tested on: M19-MEL melanoma
SNB-78 CNS = tested on: SNB-78 CNS
KM20L2 colon = tested on: KM20L2 colon

CCOC(=O)CCC(NC(=O)c1ccc(Nc2cnc3ccc(C(F)(F)F)cc3n2)cc1)C(=O)OCC (stereo not drawn)
TGI (DU-145 prostate): > 100 µM
TGI (OVCAR-8 ovarian): 33.8 µM
TGI (SK-OV-3 ovarian): > 60.5 µM
TGI (HOP-62 NSCLC): > 100 µM
TGI (SNB-75 CNS): 29.9 µM
TGI (OVCAR-4 ovarian): > 74.3 µM
TGI (MCF7 breast): > 100 µM
TGI (NCI-H460 lung): > 100 µM
TGI (HT29 colon): > 100 µM
TGI (786-0 renal): > 56.6 µM
TGI (KM12 colon): > 85.3 µM
TGI (UO-31 renal): > 100 µM
TGI (COLO 205 colon): > 100 µM
TGI (SF-539 CNS): 39 µM
TGI (HOP-92 NSCLC): > 43.1 µM
TGI (U251 CNS): > 100 µM
TGI (MDA-MB-231 breast): 25.2 µM
TGI (NCI/ADR-RES ovarian): 52.7 µM
TGI (RPMI-8226 leukemia): > 100 µM
TGI (LOX IMVI melanoma): > 100 µM
TGI (SF-268 CNS): > 100 µM
TGI (HS 578T breast): > 65.9 µM
TGI (HCT-15 colon): > 100 µM
TGI (M14 melanoma): > 100 µM
TGI (NCI-H23 lung): > 72.5 µM
TGI (SW-620 colon): > 100 µM
TGI (OVCAR-5 ovarian): > 100 µM
TGI (K-562 leukemia): > 100 µM
TGI (RXF 393 renal): > 90.2 µM
TGI (SK-MEL-28 melanoma): > 100 µM
TGI (SK-MEL-5 melanoma): > 100 µM
TGI (UACC-62 melanoma): > 77.5 µM
TGI (HCC-2998 colon): > 100 µM
TGI (BT-549 breast): 97.1 µM
TGI (SK-MEL-2 melanoma): > 100 µM
TGI (SNB-19 CNS): > 63.7 µM
TGI (SN12C renal): > 100 µM
TGI (EKVX NSCLC): > 89.6 µM
TGI (ACHN renal): > 81.2 µM
TGI (UACC-257 melanoma): > 100 µM
TGI (NCI-H522 lung): > 100 µM
TGI (CCRF-CEM leukemia): > 100 µM
TGI (PC-3 prostate): > 100 µM
TGI (MDA-N): > 100 µM
TGI (A498 renal): > 79 µM
TGI (HCT-116 colon): > 100 µM
TGI (CAKI-1 renal): > 65.1 µM
TGI (TK-10 renal): > 40.8 µM
TGI (MOLT-4 leukemia): > 100 µM
TGI (SF-295 CNS): > 100 µM
TGI (MALME-3M melanoma): > 100 µM
TGI (SR leukemia): > 100 µM
TGI (MDA-MB-435): > 100 µM
TGI (IGROV1 ovarian): > 47.2 µM
TGI (T-47D breast): > 100 µM
TGI (NCI-H226 lung): > 100 µM
TGI (A549 NSCLC): > 100 µM
TGI (HL-60(TB) leukemia): > 100 µM
TGI (OVCAR-3 ovarian): > 100 µM

COc1ccc2c(c1)CC[C@@H]1C2CC[C@]2(C)C(=O)N(N)C(=O)CC12 (stereo partly drawn)
TGI (SK-OV-3 ovarian): > 100 µM
TGI (HOP-62 NSCLC): > 100 µM
TGI (SNB-75 CNS): > 100 µM
TGI (OVCAR-4 ovarian): > 100 µM
TGI (NCI-H460 lung): > 100 µM
TGI (HT29 colon): > 100 µM
TGI (786-0 renal): > 100 µM
TGI (KM12 colon): > 100 µM
TGI (UO-31 renal): > 100 µM
TGI (COLO 205 colon): > 100 µM
TGI (DMS 114 small cell lung): > 100 µM
TGI (HOP-92 NSCLC): > 100 µM
TGI (U251 CNS): > 100 µM
TGI (RPMI-8226 leukemia): > 100 µM
TGI (SF-268 CNS): > 100 µM
TGI (M14 melanoma): > 100 µM
TGI (NCI-H23 lung): > 100 µM
TGI (OVCAR-5 ovarian): > 100 µM
TGI (K-562 leukemia): > 100 µM
TGI (LXFL 529 NSCLC): > 100 µM
TGI (SK-MEL-28 melanoma): > 100 µM
TGI (M19-MEL melanoma): > 100 µM
TGI (UACC-62 melanoma): > 100 µM
TGI (SK-MEL-2 melanoma): > 100 µM
TGI (SNB-19 CNS): > 100 µM
TGI (ACHN renal): > 100 µM
TGI (UACC-257 melanoma): > 100 µM
TGI (NCI-H522 lung): > 100 µM
TGI (CCRF-CEM leukemia): > 100 µM
TGI (A498 renal): > 100 µM
TGI (SNB-78 CNS): > 100 µM
TGI (HCT-116 colon): > 100 µM
TGI (MOLT-4 leukemia): > 100 µM
TGI (SF-295 CNS): > 100 µM
TGI (MALME-3M melanoma): > 100 µM
TGI (SR leukemia): > 100 µM
TGI (IGROV1 ovarian): > 100 µM
TGI (KM20L2 colon): > 100 µM
TGI (OVCAR-3 ovarian): > 100 µM
